Test results: US20200190202A1, “Reprogramming of CD8 T Cells with CXCL12 Signaling Inhibitors” (priority 2017, published 2020)
Where two headings read alike, the source gives them in different places.

Key:
40 L mouse mesothelioma = test: Intraperitoneal malignant mesothelioma model, tumor growth and survival, 40 L; type: in vivo; conditions: 40 L model; compared to saline control
AE17 mouse mesothelioma = test: Intraperitoneal malignant mesothelioma model, tumor growth and survival, AE17; type: in vivo; conditions: compared to saline control
[1] = test system: T cells in spleens and tumors of 40 L tumor-bearing mice; test: Immune profiling by flow cytometry, 40 L tumor-bearing mice; type: in vivo, mouse; conditions: for proportion of CD8+ T cells in total live cells: compared to saline control
[2] = test system: T cells in spleens, lymph nodes and tumors of AE17 tumor-bearing mice; test: Immune profiling by flow cytometry, AE17 tumor-bearing mice; type: in vivo, mouse; conditions: for proportion of CD8+ T cells in total live cells: compared to saline control
[3] = test system: CD8+ T cells of 40 L tumor-bearing mice; test: Ex-vivo restimulation with recombinant mesothelin and intracellular IFN-γ detection, 40 L mice; type: in vivo, mouse; conditions: splenic CD8+ T cells; 40 L model; compared to saline
[4] = test system: CD8+ T cells of AE17 tumor-bearing mice; test: Ex-vivo restimulation with recombinant mesothelin and intracellular IFN-γ detection, AE17 mice; type: in vivo, mouse; conditions: AE17 model, compared to saline
[5] = test system: GFP-Foxp3 expressing CD4+ splenocytes (Treg cells); conditions: AMD3100 5 μg/ml, 24 hours
ovarian cancer = conditions: monotherapy in ovarian tumor-bearing mice; cited from earlier work
[6] = 0.01-0.02 mg/kg subcutaneously twice daily for 6 months; cited from earlier work
[7] = tumors, 40 L model, compared to saline
[8] = lymph nodes, AE17 model, compared to saline
[9] = tumors, AE17 model, compared to saline

c1cc(CN2CCCNCCNCCCNCC2)ccc1CN1CCCNCCNCCCNCC1 [AMD3100, plerixafor]
animal survival (40 L mouse mesothelioma): only modest benefit | animal survival (AE17 mouse mesothelioma): only modest benefit | proportion of PD-1-expressing CD8+ T cells ([1]; spleens, 40 L model, compared to saline): significantly fewer | proportion of CD8+ T cells in total live cells ([1]; spleens, 40 L model): did not increase | proportions of Treg cells ([1]; spleens, 40 L tumor-bearing mice): did not alter | IL-2+ CD40L+ cells among the Foxp3+ CD25− Treg population ([1]; tumors of 40 L mice): significantly more | ratio of CD25− cells to CD25+ cells within the Foxp3+ population ([1]; tumors of 40 L mice): significantly increased | proportion of PD-1-expressing CD8+ T cells [1, 7]: significantly fewer | proportions of Treg [1, 7]: significantly decreased | ratio of CD8+ T cells to Treg [1, 7]: increased | proportion of CD8+ T cells in total live cells ([1]; tumors, 40 L model): did not increase | IL-2+ CD40L+ cells among the Foxp3+ CD25− Treg population ([2]; lymph nodes of AE17 mice): significantly more | ratio of CD25− cells to CD25+ cells within the Foxp3+ population ([2]; lymph nodes, AE17 model): significantly increased | cell ratio of CD8+ T cells to Treg cells [2, 8]: significantly increased | proportion of PD-1-expressing CD8+ T cells [2, 8]: significantly fewer | proportion of CD8+ T cells in total live cells ([2]; lymph nodes, AE17 model): did not increase | Treg in the lymph nodes ([2]; lymph nodes, AE17 tumor-bearing mice): generally reduced | proportion of PD-1-expressing CD8+ T cells ([2]; spleens, AE17 model, compared to saline): significantly fewer | proportion of CD8+ T cells in total live cells ([2]; spleens, AE17 model): did not increase | proportion of PD-1-expressing CD8+ T cells [2, 9]: significantly fewer | proportions of Treg [2, 9]: significantly decreased | ratio of CD8+ T cells to Treg [2, 9]: increased | proportion of CD8+ T cells in total live cells ([2]; tumors, AE17 model): did not increase | mesothelin-specific IFN-γ expression in CD8+ T cells [3]: did not enhance | mesothelin-specific IFN-γ expression in CD8+ T cells ([4]; lymph node CD8+ T cells): did not enhance | mesothelin-specific IFN-γ expression in CD8+ T cells ([4]; splenic CD8+ T cells): did not enhance | conversion of Foxp3+ CD25− Treg into IL-2+ CD40L+ cells ([5]; anti-CD3/CD28 antibodies 1 μg/ml, P=0.0015): converted more | ratio of the proportion of CD25− cells to CD25+ cells in the Foxp3+ CD4+ population ([5]; anti-CD3/CD28 antibodies 1 μg/ml, P=0.0017): significantly increased | ratio of the proportion of CD25− cells to CD25+ cells in the Foxp3+ CD4+ population ([5]; no anti-CD3/CD28 stimulation): did not change | intratumoral Treg cells (ovarian cancer): selective reduction | survival (ovarian cancer): survival advantage | safety of long-term, low-dose treatment [6]: safety
